Like-named read-outs stand apart in the source and are kept apart here.

In experiment [1] the test system is LPS-induced nitric oxide (NO) production in RAW 264.7 cells. The experiment is described as follows: Inhibition of NO generation in LPS-induced RAW 264.7 cells (Griess). Format: cell-based, murine. Particulars: for IC50: Mus musculus. Here is the method: The nitrite concentration in the culture medium was measured to indicate nitric oxide (NO) production as previously described (Min et al. [2009]). The murine macrophage RAW 264.7 cell line was obtained from ATCC, Manassas, VA, USA, and maintained in Dulbecco’s modified Eagle’s medium supplemented with 10% heat-inactivated FBS (Cat. No. A5670801, Gibco BRL Co, Grand Island, NY, USA), penicillin G (100 units/mL) (Cat. No. P7794, Sigma-Aldrich, USA), streptomycin (100 µg/mL) (Cat. No. S9137, Sigma-Aldrich, USA), and L-glutamine (2 mM) (Cat. No. 25030081, Gibco BRL Co, Grand Island, NY, USA). In brief, RAW 264.7 cells were seeded at a density of 4 × 10^4 cells/well in phenol red-free media (Cat. No. 11835030, Gibco, USA) in a 96-well plate, and incubated in a humidified incubator with 5% CO2 at 37 °C for 24 hr. […] The concentration of nitric oxide production was assessed using the Griess reagent, which consists of a 1:1 (v/v) mixture of 1% sulfanilamide (Cat No. A13001, Alfa Aesar, Massachusetts, USA) in H3PO4 and N-(1-naphthyl)ethylenediamine dihydrochloride (Cat. No. 102397, MP Biomedicals, USA). Absorbance was recorded with a microplate reader (SynergyMx, BioTeK, Winooski, VT, USA) at 540 nm. A standard curve was created using sodium nitrite (1–100 μM) (Cat. No. 44227, Alfa Aesar, Massachusetts, USA). A sulforhodamine B (SRB) assay was employed to assess the cellular viability of the samples with RAW 264.7 cells under a similar experimental setup. The final % inhibition of NO production was adjusted based on cell viability.

Experiment [2] can be described thus: Ferric-reducing antioxidant power (FRAP) assay. Here is the method: The FRAP assay was used to evaluate antioxidant activity based on the ability of the sample to reduce Fe^3+-TPTZ (2,4,6-tris(2-pyridyl)-S-triazine) to Fe^2+-TPTZ (Benzie and Strain [1996]). This reduction results in a color change from colorless to blue. The absorbance was measured at 593 nm using a Microplate Reader (BioTek ELx800 Instruments Inc. Winooski, Vermont, USA) with the Gen 5 software for FRAP value calculations. A ferrous sulfate heptahydrate (FeSO4 · 7H2O) (Cat. No. 215422, Sigma-Aldrich, USA) standard curve, ranging from 1000 µM to 50 µM, was prepared for the assay. The FRAP reagent consists of 300 mM sodium acetate buffer (pH 3.6) (Cat. No. 90358, Sigma-Aldrich, USA), 10 mM TPTZ solution (Cat. No. T1253, Sigma-Aldrich, USA), and 20 mM ferric (III) chloride hexahydrate (FeCl3 · 6H2O) (Cat. No. 236489, Sigma-Aldrich, USA) in a 10:1:1 ratio, respectively, and heated to 37 °C for ten minutes before use. A blank was measured at 593 nm with 150 µL FRAP reagent added to each well of a 96-well microtiter plate. Samples (20 µL of each sample) (1, 0.5, 0.25 mg/mL) and ascorbic acid (Sigma-Aldrich, Cat. No. A4403) positive control (1 mg/mL) were added in triplicates. Reducing capacity was expressed by FRAP values in an µM FeSO4/µg sample unit.

Regarding `Nc1ccn([C@H]2C[C@H](O)[C@@H](CO)O2)c(=O)n1` [Compound 1, deoxycytidine], in experiment [1] (RAW 264.7 cells, LPS-induced, highest concentration 50 μg/mL), the “NO inhibitory activity (in words)” value is on record as “no significant NO inhibitory activity”. The “FRAP” value in experiment [2] (µM FeSO4/µg sample) worked out at 0.41 ± 0.03 µM/µg.
Broadly, the IC50 is the concentration at which inhibition is half-maximal. Regarding `CC(C)CCC[C@@H](C)[C@H]1CC[C@H]2[C@@H]3CC=C4C[C@@H](O)CC[C@]4(C)[C@H]3CC[C@]12C` [Compound 9, cholesterol], in experiment [1] (RAW264.7, RAW 264.7 cells, LPS 1 μg/mL, adjusted for cell viability, read-out: IC50, inhibition of LPS-induced NO production), the IC50 came to 50.2 ± 2.2 µM. Moreover, in experiment [1] (RAW 264.7 cells, LPS-induced), the “inhibition of NO production at 5 µg/ml (in words)” value was “significant (p > 0.001) inhibition”.
On to `CC(C)CCC[C@@H](C)[C@H]1CCC2[C@@]34C=C[C@]5(C[C@@H](O)CC[C@]5(C)C3CC[C@@]21C)OO4` (some centres unmarked) [Compound 10, 7-dehydrochoresterol peroxide], for which, in experiment [1] (RAW264.7, read-out: IC50, inhibition of LPS-induced NO production), the IC50 is 53.6 ± 2.3 µM. Moreover, the “inhibition of NO production at 5 µg/ml (in words)” value in experiment [1] (RAW 264.7 cells, LPS-induced) was “significant (p > 0.001) inhibition”. Further, the “FRAP” value in experiment [2] (FeSO4 standard curve) is 204.07 µM; in experiment [2] (µM FeSO4/µg sample), 2.55 ± 0.02 µM/µg.

These data come from article PMC12203697, “Bioactive constituents from the edible seaweed Halymenia hawaiiana (Rhodophyta)” (Pharmaceutical Biology, 2025).
